{"source": "paper PMC10535864", "about": "“Novel Aminopyrimidine-2,4-diones, 2-Thiopyrimidine-4-ones, and 6-Arylpteridines as Dual-Target Inhibitors of BRD4/PLK1: Design, Synthesis, Cytotoxicity, and Computational Studies” (Pharmaceuticals, 2023)", "key": {"U-937 renal cancer cells": {"tested_on": "U-937 renal cancer cells", "assay": "MTT cytotoxicity assay, U-937", "assay_type": "cell-based", "conditions": "MTT; for Toxicity %: U937", "description": "(§6) Using a six-dose MTT colorimetric assay [44, 66], all new synthetic compounds were tested for cytotoxicity against three cancer cell lines: MDA-MB-231 breast cancer cells, HT-29 colorectal adenocarcinoma cells, and U-937 renal cancer cells. […] These cell lines were supplied by ATCC (American Type Culture Collection) via the Holding company for biological products and vaccines (VACSERA, Cairo, Egypt). The reference control used was Methotrexate.\n(§7) Using a six-dose MTT colorimetric assay [44, 66], allnew synthetic compounds were tested for cytotoxicity against three cancer cell lines: MDA-MB-231 breast cancer cells,HT-29 colorectal adenocarcinoma cells, and U-937 renal\n(§8) The cell lines were supplied by ATCC (American Type Culture Collection). The reference control used was Methotrexate. The cytotoxic activities of the examined compounds were quantified by inoculating a 96-well tissue culture plate with 1 X 10^5 cells / mL (100 uL/well) and incubating it at 37°C for 24 hours to develop a complete monolayer sheet. After forming a confluent sheet of cells, the growth medium was decanted from 96-well microtiter plates, and the cell monolayer was washed twice with wash media. Two-fold dilutions of tested samples were made in RPMI medium with 2% serum (maintenance medium), and 0.1 mL of each dilution was tested in different wells, with three wells serving as controls and receiving only maintenance medium. Following that, the plate was incubated at 37°C and examined. Cells were investigated for any physical signs of toxicity, such as partial or complete monolayer loss, rounding, shrinkage, or cell granulation. MTT solution was prepared (5mg/ml in PBS) (BIO BASIC CANADA INC), and 20 uL MTT solution was added to each well. After 5 minutes on a shaking table at150 rpm to thoroughly mix the MTT into the media, it was incubated (37C, 5% CO2) for 4 hours to allow the MTT to be metabolized. Formazan (MTT metabolic product) was resuspended in 200 uL DMSO and shaken at 150 rpm for 5 minutes to thoroughly mix the formazan into the solvent. The optical density was measured at 560 nm, and the background was subtracted at 620 nm. Finally, the IC50 of the test compound in comparison to the reference was calculated using the GraphPad Prism software."}, "[1]": {"assay": "MTT cytotoxicity assay, U-937", "assay_type": "cell-based", "conditions": "Homo sapiens, U-937, U937, MTT", "description": "as §6, §7, §8"}, "[2]": {"tested_on": "MDA-MB-231 breast cancer cells", "assay": "MTT cytotoxicity assay, MDA-MB-231", "assay_type": "cell-based", "conditions": "MDA-MB-231, MTT", "method": "(§1) All newly synthetic compounds were tested for cytotoxicity using a six-dose MTT colorimetric assay on three cancer cell lines; namely, breast cancer cells (MDA-MB-231), colorectal adenocarcinoma cells (HT-29) and renal cancer cells (U-937). […] However, renal cancer cells (U-937) were discovered to be the least sensitive.\n(§2) Using a six-dose MTT colorimetric assay, all new synthetic compounds were tested for cytotoxicity against three cancer cell lines: MDA-MB-231 breast cancer cells, HT-29 colorectal adenocarcinoma cells, and U-937 renal cancer cells. […] These cell lines were supplied by ATCC (American Type Culture Collection) via the Holding company for biological products and vaccines (VACSERA, Cairo, Egypt). The reference control used was Methotrexate. Detailed descriptions of the MTT colorimetric assay’s protocol can be found in the Supplementary file.\n(§3) 1.1.In-vitro cytotoxicity screening\n(§4) Using a six-dose MTT colorimetric assay, allnew synthetic compounds were tested for cytotoxicity against three cancer cell lines: MDA-MB-231 breast cancer cells,HT-29 colorectal adenocarcinoma cells, and U-937 renal […]\n(§5) The cell lines were supplied by ATCC (American Type Culture Collection). The reference control used was Methotrexate. The cytotoxic activities of the examined compounds were quantified by inoculating a 96-well tissue culture plate with 1 X 10^5 cells / mL (100 uL/well) and incubating it at 37°C for 24 hours to develop a complete monolayer sheet. After forming a confluent sheet of cells, the growth medium was decanted from 96-well microtiter plates, and the cell monolayer was washed twice with wash media. Two-fold dilutions of tested samples were made in RPMI medium with 2% serum (maintenance medium), and 0.1 mL of each dilution was tested in different wells, with three wells serving as controls and receiving only maintenance medium. Following that, the plate was incubated at 37°C and examined. Cells were investigated for any physical signs of toxicity, such as partial or complete monolayer loss, rounding, shrinkage, or cell granulation. MTT solution was prepared (5mg/ml in PBS) (BIO BASIC CANADA INC), and 20 uL MTT solution was added to each well. After 5 minutes on a shaking table at150 rpm to thoroughly mix the MTT into the media, it was incubated (37°C, 5% CO2) for 4 hours to allow the MTT to be metabolized. Formazan (MTT metabolic product) was resuspended in 200 uL DMSO and shaken at 150 rpm for 5 minutes to thoroughly mix the formazan into the solvent. The optical density was measured at 560 nm, and the background was subtracted at 620 nm. Finally, the IC50 of the test compound in comparison to the reference was calculated using the GraphPad Prism software. […]"}, "[3]": {"tested_on": "HT-29 colorectal adenocarcinoma cells", "assay": "MTT cytotoxicity assay, HT-29", "assay_type": "cell-based", "conditions": "MTT", "method": "as §1, §2, §3, §4, §5"}}}
{"smiles": "Cn1c(=S)[nH]c(=O)c2nc(-c3ccccc3)c(-c3ccccc3)nc21", "note": "[Compound 10, 1-Methyl-6,7-diphenyl-2-thioxo-2,3-dihydropteridin-4(1H)-one]", "values": [{"measurement": "IC50", "setting": "U-937 renal cancer cells; Homo sapiens, U-937, mean of three independent experiments ± SD, read-out: IC50 Value U-937", "result": "8.37 ± 0.23", "unit": "µM"}, {"measurement": "Toxicity %", "setting": "U-937 renal cancer cells; 0.312 uM", "result": 0.5447, "unit": "%"}, {"measurement": "Toxicity %", "setting": "U-937 renal cancer cells; 0.625 uM", "result": 0.1634, "unit": "%"}, {"measurement": "Toxicity %", "setting": "U-937 renal cancer cells; 1.25 uM", "result": 0.05447, "unit": "%"}, {"measurement": "Toxicity %", "setting": "U-937 renal cancer cells; 2.5 uM", "result": 4.248, "unit": "%"}, {"measurement": "Toxicity %", "setting": "U-937 renal cancer cells; 5 uM", "result": 15.03, "unit": "%"}, {"measurement": "Toxicity %", "setting": "U-937 renal cancer cells; 10 uM", "result": 65.14, "unit": "%"}, {"measurement": "viability at 0.312 µM", "setting": "[1]; 0.312 uM", "result": 99.5, "unit": "%"}, {"measurement": "viability at 0.625 µM", "setting": "[1]; 0.625 uM", "result": 99.8, "unit": "%"}, {"measurement": "viability at 1.25 µM", "setting": "[1]; 1.25 uM", "result": 99.9, "unit": "%"}, {"measurement": "viability at 2.5 µM", "setting": "[1]; 2.5 uM", "result": 95.8, "unit": "%"}, {"measurement": "viability at 5 µM", "setting": "[1]; 5 uM", "result": 85, "unit": "%"}, {"measurement": "viability at 10 µM", "setting": "[1]; 10 uM", "result": 34.9, "unit": "%"}, {"measurement": "IC50", "setting": "[2]; Homo sapiens, mean of three independent experiments ± SD, read-out: IC50 Value MDA-MB-231", "result": "3.4 ± 0.02", "unit": "µM"}, {"measurement": "viability at 0.312 µM", "setting": "[2]; Homo sapiens, 0.312 uM", "result": 100, "unit": "%"}, {"measurement": "viability at 0.625 µM", "setting": "[2]; Homo sapiens, 0.625 uM", "result": 100, "unit": "%"}, {"measurement": "viability at 1.25 µM", "setting": "[2]; Homo sapiens, 1.25 uM", "result": 98.8, "unit": "%"}, {"measurement": "viability at 2.5 µM", "setting": "[2]; Homo sapiens, 2.5 uM", "result": 54.3, "unit": "%"}, {"measurement": "viability at 5 µM", "setting": "[2]; Homo sapiens, 5 uM", "result": 26.3, "unit": "%"}, {"measurement": "viability at 10 µM", "setting": "[2]; Homo sapiens, 10 uM", "result": 7.93, "unit": "%"}, {"measurement": "Toxicity %", "setting": "[2]; 0.312 uM", "result": 0, "unit": "%"}, {"measurement": "Toxicity %", "setting": "[2]; 0.625 uM", "result": 0, "unit": "%"}, {"measurement": "Toxicity %", "setting": "[2]; 1.25 uM", "result": 1.197, "unit": "%"}, {"measurement": "Toxicity %", "setting": "[2]; 2.5 uM", "result": 45.66, "unit": "%"}, {"measurement": "Toxicity %", "setting": "[2]; 5 uM", "result": 73.67, "unit": "%"}, {"measurement": "Toxicity %", "setting": "[2]; 10 uM", "result": 92.07, "unit": "%"}, {"measurement": "melting point", "result": 287, "unit": "°C"}, {"measurement": "Toxicity %", "setting": "[3]; HT29, 0.312 uM", "result": 0, "unit": "%"}, {"measurement": "Toxicity %", "setting": "[3]; HT29, 0.625 uM", "result": 0, "unit": "%"}, {"measurement": "Toxicity %", "setting": "[3]; HT29, 1.25 uM", "result": 2.239, "unit": "%"}, {"measurement": "Toxicity %", "setting": "[3]; HT29, 2.5 uM", "result": 18.99, "unit": "%"}, {"measurement": "Toxicity %", "setting": "[3]; HT29, 5 uM", "result": 41.09, "unit": "%"}, {"measurement": "Toxicity %", "setting": "[3]; HT29, 10 uM", "result": 96.3, "unit": "%"}, {"measurement": "viability at 0.312 µM", "setting": "[3]; Homo sapiens, HT-29, HT29, 0.312 uM", "result": 100, "unit": "%"}, {"measurement": "viability at 0.625 µM", "setting": "[3]; Homo sapiens, HT-29, HT29, 0.625 uM", "result": 100, "unit": "%"}, {"measurement": "viability at 1.25 µM", "setting": "[3]; Homo sapiens, HT-29, HT29, 1.25 uM", "result": 97.8, "unit": "%"}, {"measurement": "viability at 2.5 µM", "setting": "[3]; Homo sapiens, HT-29, HT29, 2.5 uM", "result": 81, "unit": "%"}, {"measurement": "viability at 5 µM", "setting": "[3]; Homo sapiens, HT-29, HT29, 5 uM", "result": 58.9, "unit": "%"}, {"measurement": "viability at 10 µM", "setting": "[3]; Homo sapiens, HT-29, HT29, 10 uM", "result": 3.7, "unit": "%"}, {"measurement": "IC50", "setting": "[3]; Homo sapiens, HT-29, mean of three independent experiments ± SD, read-out: IC50 Value HT-29", "result": "5.63 ± 0.13", "unit": "µM"}]}
